pEC50, pIC50, pKi: −log10 of the molar value.
What was measured:
[1] = biological target: T1, Muscarinic acetylcholine receptor M1 (Homo sapiens, UniProt P11229); test: Displacement of [3H]NMS from human M1 receptor expressed in CHO cells by microplate scintillation counting based radioligand binding assay; type: cell-based
T1 sequence (P11229 whole entry): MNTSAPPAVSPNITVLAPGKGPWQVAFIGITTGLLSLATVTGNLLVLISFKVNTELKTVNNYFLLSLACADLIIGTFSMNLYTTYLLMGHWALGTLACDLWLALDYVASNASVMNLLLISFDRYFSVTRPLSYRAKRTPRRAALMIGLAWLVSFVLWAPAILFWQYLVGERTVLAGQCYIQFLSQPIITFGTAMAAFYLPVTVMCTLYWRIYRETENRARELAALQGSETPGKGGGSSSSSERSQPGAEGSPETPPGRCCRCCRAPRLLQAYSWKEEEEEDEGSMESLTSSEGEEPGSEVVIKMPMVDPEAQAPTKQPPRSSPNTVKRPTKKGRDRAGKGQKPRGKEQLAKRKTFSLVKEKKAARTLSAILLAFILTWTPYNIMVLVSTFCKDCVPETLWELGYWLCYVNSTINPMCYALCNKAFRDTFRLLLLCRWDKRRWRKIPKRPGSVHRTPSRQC

[2] = biological target: T2, Muscarinic acetylcholine receptor M2 (Homo sapiens, UniProt P08172); test: Displacement of [3H]NMS from human M2 receptor expressed in CHO cells by microplate scintillation counting based radioligand binding assay; type: cell-based
T2 sequence (P08172 whole entry): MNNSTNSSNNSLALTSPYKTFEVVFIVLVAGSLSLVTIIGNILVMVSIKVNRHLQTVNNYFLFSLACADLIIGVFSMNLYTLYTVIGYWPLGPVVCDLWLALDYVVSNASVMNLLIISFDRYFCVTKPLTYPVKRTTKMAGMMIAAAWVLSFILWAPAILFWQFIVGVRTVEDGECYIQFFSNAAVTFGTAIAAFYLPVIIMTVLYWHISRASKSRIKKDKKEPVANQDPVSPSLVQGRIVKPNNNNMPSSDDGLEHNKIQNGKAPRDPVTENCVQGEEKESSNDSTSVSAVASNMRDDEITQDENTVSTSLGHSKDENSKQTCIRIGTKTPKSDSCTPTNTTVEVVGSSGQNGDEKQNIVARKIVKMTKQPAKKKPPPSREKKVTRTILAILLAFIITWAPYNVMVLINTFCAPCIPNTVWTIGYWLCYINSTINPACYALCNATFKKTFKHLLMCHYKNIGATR

[3] = biological target: Muscarinic acetylcholine receptor M3 (Homo sapiens, UniProt P20309); test: Displacement of [3H]NMS from human M3 receptor expressed in CHO cells by microplate scintillation counting based radioligand binding assay; type: cell-based
Muscarinic acetylcholine receptor M3, sequence (P20309 whole entry): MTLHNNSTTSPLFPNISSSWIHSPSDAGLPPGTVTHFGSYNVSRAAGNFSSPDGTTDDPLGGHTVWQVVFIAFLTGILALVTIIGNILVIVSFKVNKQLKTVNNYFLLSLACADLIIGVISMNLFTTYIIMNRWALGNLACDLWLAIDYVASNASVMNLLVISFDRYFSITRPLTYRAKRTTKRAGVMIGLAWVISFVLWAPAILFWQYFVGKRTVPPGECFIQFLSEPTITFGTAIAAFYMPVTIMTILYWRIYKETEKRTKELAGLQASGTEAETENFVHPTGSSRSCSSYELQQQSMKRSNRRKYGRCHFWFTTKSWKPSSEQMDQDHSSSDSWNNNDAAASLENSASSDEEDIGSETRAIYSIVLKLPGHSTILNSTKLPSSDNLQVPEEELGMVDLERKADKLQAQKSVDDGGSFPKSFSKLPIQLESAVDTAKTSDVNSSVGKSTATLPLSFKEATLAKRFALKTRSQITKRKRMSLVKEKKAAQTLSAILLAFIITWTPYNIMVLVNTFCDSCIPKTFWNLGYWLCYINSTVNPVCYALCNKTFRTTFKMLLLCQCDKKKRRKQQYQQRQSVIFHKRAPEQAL

[4] = biological target: T3, Muscarinic acetylcholine receptor M4 (Homo sapiens, UniProt P08173); test: Displacement of [3H]NMS from human M4 receptor expressed in CHO cells by microplate scintillation counting based radioligand binding assay; type: cell-based
T3 sequence (P08173 whole entry): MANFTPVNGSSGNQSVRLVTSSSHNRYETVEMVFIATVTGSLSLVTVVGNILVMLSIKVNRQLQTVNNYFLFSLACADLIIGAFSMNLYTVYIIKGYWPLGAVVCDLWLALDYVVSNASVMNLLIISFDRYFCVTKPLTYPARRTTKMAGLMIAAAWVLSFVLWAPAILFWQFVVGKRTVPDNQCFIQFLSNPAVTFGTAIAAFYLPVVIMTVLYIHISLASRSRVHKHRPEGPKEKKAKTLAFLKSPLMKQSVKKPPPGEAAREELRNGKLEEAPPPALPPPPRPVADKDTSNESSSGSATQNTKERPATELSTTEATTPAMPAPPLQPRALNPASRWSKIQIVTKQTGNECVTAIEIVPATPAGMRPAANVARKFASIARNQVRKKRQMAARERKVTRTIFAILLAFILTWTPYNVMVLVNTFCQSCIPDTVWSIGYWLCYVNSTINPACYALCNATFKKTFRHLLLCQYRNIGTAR

[5] = biological target: T4, Muscarinic acetylcholine receptor M1 (Homo sapiens) (UniProt P11229); test: Agonist activity at human M1 receptor expressed in HEK293T cells by BRET based Gq protein engagement assay relative carbachol; type: cell-based; conditions: HEK-293T
T4 sequence (whole entry): T1 sequence (P11229 whole entry)

[6] = biological target: T4, Muscarinic acetylcholine receptor M1 (Homo sapiens); test: Positive modulatory activity at human M1 receptor expressed in HEK293T cells assessed as effect on carbachol-induced response by BRET based Gq protein engagement assay relative to untreated control; type: cell-based; conditions: HEK-293T
[7] = biological target: T1, Muscarinic acetylcholine receptor M1; test: Agonist activity at human M1 receptor expressed in HEK293T cells by BRET based beta-arrestin engagement assay
[8] = biological target: T4, Muscarinic acetylcholine receptor M1 (Homo sapiens); test: Agonist activity at human M1 receptor expressed in HEK293T cells by BRET based beta-arrestin engagement assay relative to carbachol; type: cell-based; conditions: HEK-293T
[9] = biological target: T3, Muscarinic acetylcholine receptor M4; test: Antagonist activity at human M4 receptor expressed in HEK293T cells assessed as inhibition of carbachol-induced response by BRET based Gq protein engagement assay; type: cell-based, HEK-293T
[10] = biological target: T3, Muscarinic acetylcholine receptor M4; test: Antagonist activity at human M4 receptor expressed in HEK293T cells assessed as inhibition of xanomeline-induced response by BRET based Gq protein engagement assay; type: cell-based, HEK-293T
[11] = biological target: T3, Muscarinic acetylcholine receptor M4; test: Antagonist activity at human M4 receptor expressed in HEK293T cells assessed as inhibition of carbachol-induced response by beta-arrestin engagement assay; type: cell-based, HEK-293T
[12] = biological target: T5, Muscarinic acetylcholine receptor M4 (Homo sapiens) (UniProt P08173); test: Antagonist activity at human M4 receptor expressed in HEK293T cells assessed as inhibition of carbachol-induced response by beta-arrestin engagement assay relative to untreated control; type: cell-based; conditions: HEK-293T
T5 sequence (whole entry): T3 sequence (P08173 whole entry)

[13] = biological target: T3, Muscarinic acetylcholine receptor M4; test: Antagonist activity at human M4 receptor expressed in HEK293T cells assessed as inhibition of xanomeline-induced response by beta-arrestin engagement assay; type: cell-based, HEK-293T
[14] = biological target: T5, Muscarinic acetylcholine receptor M4 (Homo sapiens); test: Antagonist activity at human M4 receptor expressed in HEK293T cells assessed as inhibition of xanomeline-induced response by beta-arrestin engagement assay relative to untreated control; type: cell-based; conditions: HEK-293T
[15] = biological target: T1, Muscarinic acetylcholine receptor M1
[16] = biological target: T1, Muscarinic acetylcholine receptor M1; remark: listed apart in the source
[17] = biological target: T5, Muscarinic acetylcholine receptor M4 (Homo sapiens); test: Agonist activity at human M4 receptor expressed in HEK293T cells by BRET based Gi protein activation assay relative to carbachol; conditions: HEK-293T

Compound `CCCCC1CCN(CCCN2C(=O)CCc3ccccc32)CC1` has a pKi [1] of 6.50, a pKi [2] of 6.69 and a pKi [3] of 5.92. The pKi [4] was 6.68, the Emax [5] was 81% and the Emax [6] was 101%. The pEC50 [7] was 6.08, the Emax [8] was 32% and the pIC50 [9] was 5.65. For the same compound, the pIC50 [10] was 3.92, the pIC50 [11] was 6.75 and the Imax [12] was 16%. For the same compound, the pIC50 [13] was 5.12, the Imax [14] was 19% and the pIC50 [15] was 6.76. The pIC50 [16] was 5.80 and the Emax [17] was 46%.

Source: ChEMBL document CHEMBL3351363 (J Med Chem, 2014)
